Results: the NIST ThermoML archive (doi:10.1021/je0601513)
Numbers after ± are expanded uncertainties.

How the values were obtained:
[1] = 101.33 kPa, Liquid; for viscosity: Capillary tube (Ostwald / Ubbelohde) method
[2] = molar heat capacity at constant pressure; settings: 101.33 kPa, Liquid, Small sample (50 mg) DSC
[3] = refractive index (Na D-line) (dimensionless); settings: 101.33 kPa, Liquid, Standard Abbe refractometry

mass density ([1]; 288.15 K) [kg/m3] | viscosity ([1]; 288.15 K) [mPa·s] | mass density ([1]; 298.15 K) [kg/m3] | viscosity ([1]; 298.15 K) [mPa·s] | mass density ([1]; 308.15 K) [kg/m3] | viscosity ([1]; 308.15 K) [mPa·s] | molar heat capacity at constant pressure ([2]; 288.15 K) [J/K/mol] | molar heat capacity at constant pressure ([2]; 298.15 K) [J/K/mol] | molar heat capacity at constant pressure ([2]; 308.15 K) [J/K/mol] | refractive index ([3]; 288.15 K) | refractive index ([3]; 298.15 K) | refractive index ([3]; 308.15 K) | molar heat capacity at constant pressure ([2]; 293.15 K) [J/K/mol] | molar heat capacity at constant pressure ([2]; 303.15 K) [J/K/mol] | molar heat capacity at constant pressure ([2]; 313.15 K) [J/K/mol] | molar heat capacity at constant pressure ([2]; 318.15 K) [J/K/mol] | molar heat capacity at constant pressure ([2]; 323.15 K) [J/K/mol] | molar heat capacity at constant pressure ([2]; 328.15 K) [J/K/mol] | molar heat capacity at constant pressure ([2]; 333.15 K) [J/K/mol] | Compound
1105.39 ± 0.47 | 2.473 ± 0.029 | 1095.36 ± 0.45 | 1.989 ± 0.023 | 1085.31 ± 0.43 | 1.644 ± 0.019 | 146.8 ± 2.3 | 152.4 ± 2.4 | 154.6 ± 2.4 | 1.4835 ± 0.0007 | 1.4778 ± 0.0006 | 1.473 ± 0.0006 |  |  |  |  |  |  |  | C[S+](C)[O-] [dimethyl sulfoxide]
807.51 ± 0.28 | 2.498 ± 0.028 | 799.54 ± 0.29 | 1.952 ± 0.022 | 791.41 ± 0.3 | 1.564 ± 0.018 | 139 ± 2 | 144.9 ± 2.2 | 151 ± 2.3 | 1.3893 ± 0.0007 | 1.3837 ± 0.0006 | 1.3795 ± 0.0005 | 142.3 ± 2.2 | 148.2 ± 2.3 | 153.7 ± 2.4 | 157.1 ± 2.4 | 160.1 ± 2.5 | 164.5 ± 2.6 | 167.8 ± 2.6 | CCCO [propan-1-ol]
